Here are results for 13 compounds from patent publication US9353075B2, “Disubstituted beta-lactones as inhibitors of N-acylethanolamine acid amidase (NAAA)” (The Regents of the University of California, priority 2011, dated 2016).

For assay [1], the target named is r-NAAA (Rattus norvegicus (Rat), UniProt Q5KTC7). Description: r-NAAA inhibition, rat lung lysosomal NAAA preparation, UPLC/MS. The assay is classed as biochemical. On the procedure:
Lysosomal NAAA protein preparation were obtained by homogenizing male Sprague-Dawley rat lungs (Charles River) in 20 mM Tris-HCl buffer pH 7.4 containing 0.32M sucrose. Samples were centrifuged at 800×g for 15 minutes at 4° C. Supernatants were then centrifuged at 12,000 g for 30 minutes at 4° C. Pellets were then resuspended in PBS pH 7.4 and subjected to a freeze/thaw cycle at −80° C. The suspension was finally centrifuged at 105,000×g for 1 hour at 4° C. The supernatant was then used in the enzymatic assay.
NAAA protein preparation was pre-incubated with various concentrations of test compounds or vehicle control in 100 mM NaH2PO4/Citrate buffer, 1% Triton-X, 3 mM DTT (pH 4.5) for 30 minutes at 37° C. Samples were then incubated with heptadecenoylethanolamide (50 μM, Avanti Polar Lipids) at 37° C. for 30 min. The reaction was terminated by addition of cold methanol containing heptadecanoic acid (NuCheck Prep) as internal standard. Samples were then analyzed by UPLC/MS (Acquity, Waters). Heptadecenoic and heptadecanoic acids were eluted on an Acquity UPLC BEH C18 column (50 mm length, 2.1 mm i.d., 1.7 μm pore size, Waters) isocratically at 0.5 mL/min for 1.5 min with a solvent mixture of 95% methanol and 5% water, both containing 0.25% Acetic Acid and 5 mM Ammonium Acetate. The column temperature was 40° C. Electrospray ionization was in the negative mode, capillary voltage was 0.5 kV, cone voltage was […], desolvation temperature was 500° C. N2 was used as drying gas at a flow rate of 1000 L/hour and a temperature of 500° C. The [M−H]^− ion was monitored in the selected-ion monitoring mode (m/z values: heptadecenoic acid 267.37, heptadecanoic acid 269.37). Calibration curves were generated using commercial heptadecenoic acid (NuCheck Prep). Inhibition of NAAA activity was calculated as reduction of heptadecenoic acid in the samples compared to vehicle controls. IC50 values were calculated by non-linear regression analysis of log [concentration]/inhibition curves using GraphPad Prism 5 (GraphPad Software Inc., CA—USA) applying a standard slope curve fitting.

Assay [2] deals with h-NAAA (Homo sapiens (Human), UniProt Q02083). Description: UPLC/MS h-NAAA assay. The assay is classed as biochemical. On the procedure: NAAA protein preparation (10 μg) was pre-incubated with various concentrations of test compound or vehicle control in 100 mM NaH2PO4, 100 mM Tri Sodium Citrate Dehydrate, 0.1% Triton-X 100, 3 mM DTT, pH 4.5 for 30 min at 37° C. Duplicate samples were then incubated with 50 μM C17:1 10-cis-heptadecenoylethanolamide (Avanti Polar Lipids, Alabaster, Ala.—USA) at 37° C. for 30 minutes. The reaction was terminated by the addition of 0.2 mL of cold methanol containing 1 nmol of heptadecanoic acid (NuChek Prep, Elysian, Minn.—USA) as internal standard. Samples were then analyzed by UPLC/MS. Heptadecenoic and heptadecanoic acids were eluted on an Acquity UPLC BEH C18 column (50 mm length, 2.1 mm i.d., 1.7 μm pore size, Waters) isocratically at 0.5 mL/min for 1.5 min with a solvent mixture of 95% methanol and 5% water, both containing 0.25% Acetic Acid and 5 mM Ammonium Acetate. The column temperature was 40° C. Electrospray ionization was in the negative mode, capillary voltage was 2.7 kV, cone voltage was 45 V, extractor voltage was 3 V. The source temperature was 150° C. with a desolvation temperature of 400° C. N2 was used as drying gas at a cone flow of 100 L/hour and a desolvation flow of […]. The [M−H]-ion was monitored in the selected-ion monitoring mode (m/z values: heptadecenoic acid 267.37, heptadecanoic acid 269.37). Calibration curves were generated using commercial heptadecenoic acid (NuCheck Prep) Inhibition of NAAA activity was calculated as reduction of heptadecenoic acid in the samples compared to vehicle controls. IC50 values were calculated by non-linear regression analysis of log [concentration]/inhibition curves using GraphPad Prism 5 (GraphPad Software Inc., CA—USA) applying a standard slope curve fitting.

The target of assay [3] is Acid Ceramidase (AC) (Rattus norvegicus (Rat), UniProt Q6P7S1). Description: Acid ceramidase inhibition, recombinant rat AC, LC-MS. The assay is classed as biochemical. As to conditions: for inhibition at 0.3 µM: read-out: r-AC % inhib. @ 0.3 μM; for inhibition at 10 µM: read-out: r-AC % inhib. @ 10 μM; for IC50: read-out: r-AC IC50. As to the method: The PCR (High Fidelity PCR Master, Roche) product was subcloned into a pEF6-[…] vector (Invitrogen) to construct a mammalian expression vector encoding […]-tagged rat AC. HEK293 cells were transfected with pEF6-rAC-[…] using Super-Fect reagent (Qiagen) and screened with G418 (0.3 mg/mL). Cells were suspended in 20 mM Tris HCl (pH 7.5) containing 0.32M sucrose, sonicated and centrifuged at 800×g for 15 minutes at 4° C. The supernatants were centrifuged again at 12,000×g for 30 minutes at 4° C. The pellets were suspended in phosphate-buffered saline (PBS) and subjected to 2 freeze-thaw cycles at -80° C. The suspensions were centrifuged at 105,000×g for 1 hour at 4° C. The supernatants containing recombinant AC were kept at -80° C. until use. Protein concentration was measured using the bicinchoninic acid (BCA) assay (Pierce). […] Reactions were stopped by addition of a mixture of chloroform/methanol (2:1, vol/vol) containing 1 nmol of heptadecanoic acid (HDA; NuChek Prep). […] HDA was eluted on an XDB Eclipse C18 column isocratically at 2.2 mL/min for 1 minute with a solvent mixture of 95% methanol and 5% water, both containing 0.25% acetic acid and 5 mM ammonium acetate. The column temperature was 50° C. Electrospray ionization (ESI) was in the negative mode, capillary voltage as 4 kV, and fragmentor voltage was 100 V. N2 was used as drying gas at a flow rate of 13 L/min and a temperature of 350° C. Nebulizer pressure was set at 60 psi. We monitored [M-H]- in the selected-ion monitoring (SIM) mode using HDA as internal standard. Calibration curves were generated using commercial lauric acid (Nu-Chek Prep; m/z=199).

Assay [4] concerns DNFB-induced dermatitis. Description: DNFB contact dermatitis in mice, ear thickness. The assay is classed as in vivo, mouse. As to conditions: mice, PEG 400 solution, each day for 7 days; (S)-OOPP 0.1-10% w/v, compound 6 0.1%. As to the method: 2,4-dinitrofluorobenzene (DNFB) (Sigma-Aldrich, Italy) was dissolved in acetone. On day 1 and 2, mice (CD1, 25-30 g, Charles River, Calco, Italy) were sensitized on the skin of the abdomen with hapten (20 μL of 0.5% DNFB). After 5 days, on day 7, mice were challenged with hapten (20 μL of 0.2% DNFB) in the earlobe and treated with drugs to be tested. Control group received the vehicle used to dissolve drugs. Mice (five per group) were placed in a plastic cage. On day 8, ear thickness was determined after challenge using a caliper. Results are expressed as absolute ear thickness.
Fresh drug suspensions of compound 6 were prepared immediately before use in a vehicle consisting of petrolatum plus 5% lauric acid and given in a volume of 20 μL/mouse. Mice were treated with different concentrations of compound 6 or vehicle together with DNFB challenge on […].
Compound 6 and the reported β-lactone NAAA inhibitor (S)-OOPP (Solorzano et al., Proceedings of the National Academy of Science USA 2009, 106, 20966-20971; Solorzano et al., Journal of Medicinal Chemistry 2010, 53, 5770-5781) were tested in this model for their contact sensitivity response. Fresh drug solutions of (S)-OOPP and compound 6 were prepared immediately before use in polyethylene glycol 400 (PEG 400) and given in a volume of 20 μL/ear. Mice were treated with different concentrations of (S)-OOPP, 0.1% compound 6 or vehicle each day for 7 days. Ear thickness was determined on day 0 and every day before challenge using a caliper. Results are expressed as absolute ear thickness.
The methods included the following. Dermatitis was produced in mice using 2-4 dinitrofluorobenzene (DNFB) as described by Buckley and Nijkamp (1994), Am J Respir Grit Care Med 149:400-7. Mice were sensitized on two consecutive days with a 0.5% DNFB solution applied to the shaved abdomen. At day 8, the ears were challenged with a 0.2% DNFB solution. Ear thickness was determined by using a micrometer. Scratching was evaluated as number of episodes per 60 minutes period. Data were analysed by ANOVA followed by the Bonferroni's test. See also Hargreaves K, et al (1988), Pain 32: 77-88 for related information.

Chain of Acid Ceramidase (AC) (Q6P7S1 21-394): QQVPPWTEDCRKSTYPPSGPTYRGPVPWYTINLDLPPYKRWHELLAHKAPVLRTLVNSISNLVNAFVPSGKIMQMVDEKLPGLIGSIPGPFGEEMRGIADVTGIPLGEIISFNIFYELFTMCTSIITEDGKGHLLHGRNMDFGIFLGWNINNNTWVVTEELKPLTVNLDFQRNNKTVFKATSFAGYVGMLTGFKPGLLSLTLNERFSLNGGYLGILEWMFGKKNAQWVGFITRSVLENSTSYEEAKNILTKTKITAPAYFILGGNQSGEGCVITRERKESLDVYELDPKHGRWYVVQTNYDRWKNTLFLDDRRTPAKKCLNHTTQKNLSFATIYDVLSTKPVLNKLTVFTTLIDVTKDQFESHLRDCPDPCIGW
Chain of r-NAAA (Q5KTC7 34-362): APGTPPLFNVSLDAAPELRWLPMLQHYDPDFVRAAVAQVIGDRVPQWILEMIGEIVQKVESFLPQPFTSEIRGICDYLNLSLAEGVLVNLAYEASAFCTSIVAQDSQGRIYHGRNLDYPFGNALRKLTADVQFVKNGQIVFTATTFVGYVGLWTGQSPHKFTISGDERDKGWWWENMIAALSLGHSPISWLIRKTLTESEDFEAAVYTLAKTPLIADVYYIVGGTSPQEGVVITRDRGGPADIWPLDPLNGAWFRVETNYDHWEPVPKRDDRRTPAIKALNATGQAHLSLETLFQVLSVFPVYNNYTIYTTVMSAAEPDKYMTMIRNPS
Chain of h-NAAA (Q02083 29-359): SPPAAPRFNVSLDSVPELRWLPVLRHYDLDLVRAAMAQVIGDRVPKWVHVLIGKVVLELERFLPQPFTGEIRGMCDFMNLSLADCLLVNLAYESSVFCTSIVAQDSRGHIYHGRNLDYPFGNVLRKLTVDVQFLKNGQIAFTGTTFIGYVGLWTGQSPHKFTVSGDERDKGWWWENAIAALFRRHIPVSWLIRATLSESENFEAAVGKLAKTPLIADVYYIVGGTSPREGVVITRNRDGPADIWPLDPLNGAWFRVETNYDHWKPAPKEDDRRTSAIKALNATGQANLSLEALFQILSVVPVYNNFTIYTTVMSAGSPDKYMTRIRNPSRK

Take `CC(CCCCc1ccccc1)OC(=O)N[C@H]1C(=O)O[C@H]1C` (mixture of isomers) [Example 22, [(1R) and (1S)-1-methyl-5-phenyl-pentyl]-N-[(2S,3R)-2-methyl-4-oxo-oxetan-3-yl]-carbamate]: the IC50 in assay [1] was 30 nM; in assay [2], 14 nM. Moreover, in assay [3], the inhibition at 0.3 µM was less than 10%.

For `O=C(CCc1ccccc1)N[C@H]1COC1=O` [(S)-OOPP, N-[(3S)-2-oxo-3-oxetanyl]-3-phenylpropanamide, reference compound], the “Contact sensitivity response (ear swelling)” value in assay [4] is listed as “did not inhibit contact sensitivity response”.

In assay [1], `CCCCCCCCOC(=O)N[C@H]1C(=O)O[C@H]1C` [Example 2, Octyl-[(2S,3R)-2-methyl-4-oxooxetan-3-yl]-carbamate] registered an IC50 of 30 nM. Besides, the inhibition at 0.3 µM in assay [3] is less than 10%.

The compound `C[C@@H]1OC(=O)[C@@H]1NC(=O)OCCCCc1ccccc1` [Example 5, 4-phenylbutyl-[(2S,3R)-2-methyl-4-oxooxetan-3-yl]-carbamate] gave a half-maximal inhibitory concentration (IC50) in assay [1] of 390 nM. In addition, the inhibition at 0.3 µM in assay [3] is less than 10%.

For `CCCCCCC[C@H](C)OC(=O)N[C@H]1C(=O)O[C@H]1C` [Example 7, [(1S)-1-methyloctyl]-N-[(2S,3R)-2-methyl-4-oxo-oxetan-3-yl]-carbamate], the IC50 in assay [1] turned out to be 16 nM; in assay [2], 5 nM. Besides, the inhibition at 10 µM in assay [3] turned out to be 45%.

In the case of `C[C@@H]1OC(=O)[C@@H]1NC(=O)OC12CC3CC(CC(C3)C1)C2` [Example 12, Tricyclo[3.3.1.1^3,7]dec-1-yl [(2S,3R)-2-methyl-4-oxooxetan-3-yl]-carbamate], the IC50 in assay [1] worked out at 870 nM; in assay [2], 540 nM.

In the case of `C[C@@H]1OC(=O)[C@@H]1NC(=O)OCc1ccc(-c2ccccc2)cc1` [Example 17, (4-phenylphenyl)methyl-N-[(2S,3R)-2-methyl-4-oxo-oxetan-3-yl]-carbamate], the IC50 in assay [1] and in assay [2] was 7 nM in each case. Moreover, the inhibition at 10 µM in assay [3] worked out at 30%.

For the compound `C[C@@H]1OC(=O)[C@@H]1NC(=O)OCCCOCc1ccccc1` [Example 18, 3-Benzyloxypropyl-N-[(2S,3R)-2-methyl-4-oxo-oxetan-3-yl]-carbamate], the half-inhibitory concentration (IC50) worked out at 50 nM in assay [1] and 18 nM in assay [2]. Besides, in assay [3], the inhibition at 10 µM is less than 10%.

In assay [1], `C[C@@H]1OC(=O)[C@@H]1NC(=O)OC(C)(C)CCCCc1ccccc1` [Example 25, (1,1-Dimethyl-5-phenyl-pentyl)-N-[(2S,3R)-2-methyl-4-oxo-oxetan-3-yl]-carbamate] came in with a 50% inhibitory concentration (IC50) of 310 nM. Moreover, the inhibition at 0.3 µM in assay [3] is less than 10%.

Regarding `C[C@@H]1OC(=O)[C@H]1NC(=O)OCCCCCc1ccccc1` [Example 32, 5-Phenylpentyl-N-[(2S,3S)-2-methyl-4-oxo-oxetan-3-yl]-carbamate], the values for the IC50 in assay [1] and in assay [3] were 480 nM and 3800 nM, respectively.

On to `C[C@@H]1OC(=O)[C@@H]1NC(=O)OCCCCCC1CCCCC1` [Example 35, 5-Cyclohexylpentyl-N-[(2S,3R)-2-methyl-4-oxo-oxetan-3-yl]-carbamate], for which the figures for the half-inhibitory concentration (IC50) in assay [1] and in assay [2] were 16 nM and 5 nM, respectively. Further, in assay [3], the inhibition at 10 µM is less than 10%.

Regarding `O=C(N[C@H]1COC1=O)OCCCCCc1ccccc1` [drawing 83, reference compound], the 50% inhibitory concentration (IC50) turned out to be 6850 nM in assay [1] and 1530 nM in assay [3].

Take `O=C(N[C@@H]1COC1=O)OCCCCCc1ccccc1` [reference compound]: the IC50 was 510 nM in assay [1] and 30000 ± 2500 nM in assay [3].

By IC50 is commonly meant the concentration that inhibits the measured activity by half.
